Key:
[1] = Selectivity ratio of IC50 for ovine COX-1 to IC50 for recombinant human COX-2
[2] = biological target: T1, Prostaglandin G/H synthase 1 (Ovis aries, UniProt P05979); assay: Inhibition of ovine COX1 assessed as PGH2 formation preincubated for 10 mins followed by addition of arachidonic acid as substrate measured after 2 mins by ELISA
T1 sequence (P05979 whole entry): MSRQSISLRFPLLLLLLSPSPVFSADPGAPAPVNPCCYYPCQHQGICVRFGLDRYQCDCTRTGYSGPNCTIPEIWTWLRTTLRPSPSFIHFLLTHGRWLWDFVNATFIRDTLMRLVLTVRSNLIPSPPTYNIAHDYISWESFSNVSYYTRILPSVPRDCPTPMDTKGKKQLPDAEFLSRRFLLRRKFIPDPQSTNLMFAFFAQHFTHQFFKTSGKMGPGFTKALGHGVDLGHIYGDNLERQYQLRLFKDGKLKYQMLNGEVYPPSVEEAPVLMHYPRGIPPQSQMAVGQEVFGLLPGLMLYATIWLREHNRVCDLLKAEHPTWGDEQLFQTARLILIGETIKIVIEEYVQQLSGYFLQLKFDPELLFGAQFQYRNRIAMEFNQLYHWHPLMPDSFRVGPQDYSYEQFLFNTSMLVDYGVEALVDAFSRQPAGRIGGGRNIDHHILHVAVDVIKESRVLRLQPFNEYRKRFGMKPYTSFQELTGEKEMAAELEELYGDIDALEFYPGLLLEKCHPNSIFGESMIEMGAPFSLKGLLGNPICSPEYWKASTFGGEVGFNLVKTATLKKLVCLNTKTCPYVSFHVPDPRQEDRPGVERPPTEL

[3] = Selectivity ratio of IC50 for recombinant human COX-2 to IC50 for ovine COX-1
[4] = biological target: T2, Prostaglandin G/H synthase 2 (Homo sapiens, UniProt P35354); assay: Inhibition of recombinant human COX2 assessed as PGH2 formation preincubated for 10 mins followed by addition of arachidonic acid as substrate measured after 2 mins by ELISA
T2 sequence (P35354 whole entry): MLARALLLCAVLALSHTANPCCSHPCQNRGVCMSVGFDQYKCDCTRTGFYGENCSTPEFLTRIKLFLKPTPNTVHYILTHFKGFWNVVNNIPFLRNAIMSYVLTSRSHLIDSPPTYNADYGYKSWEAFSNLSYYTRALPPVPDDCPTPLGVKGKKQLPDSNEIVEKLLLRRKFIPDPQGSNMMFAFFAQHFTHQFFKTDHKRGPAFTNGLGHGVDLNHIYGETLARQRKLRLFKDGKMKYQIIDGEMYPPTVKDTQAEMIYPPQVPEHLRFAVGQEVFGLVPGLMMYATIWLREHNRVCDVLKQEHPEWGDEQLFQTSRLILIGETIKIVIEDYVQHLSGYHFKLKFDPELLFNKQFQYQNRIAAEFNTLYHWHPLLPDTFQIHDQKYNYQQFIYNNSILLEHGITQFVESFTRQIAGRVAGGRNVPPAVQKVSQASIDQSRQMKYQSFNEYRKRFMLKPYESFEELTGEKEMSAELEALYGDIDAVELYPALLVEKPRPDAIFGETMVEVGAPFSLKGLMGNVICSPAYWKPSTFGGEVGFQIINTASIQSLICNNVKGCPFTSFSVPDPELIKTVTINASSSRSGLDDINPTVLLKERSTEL

Row | Structure (SMILES) | Ratio IC50 [1] | IC50 [2] [µM] | Ratio IC50 [3] | IC50 [4] [µM]
1 | CS(=O)(=O)c1ccc(-c2nnnn2-c2ccc(CCO)cc2)cc1 | > 7.1 | > 500 |  | 70
2 | NS(=O)(=O)c1ccc(-c2nnnn2-c2ccc(O)cc2)cc1 | > 0.2 | 100 |  | > 500
3 | CS(=O)(=O)c1ccc(-c2nnnn2-c2ccc(CO)cc2)cc1 | > 0.02 | 9 | 55 | > 500
4 | CS(=O)(=O)c1ccc(-c2nnnn2-c2ccc(O)cc2)cc1 | > 1.7 | > 500 |  | > 300

Now from value to compound:

Row | Ratio IC50 [1] | IC50 [2] [µM] | Ratio IC50 [3] | IC50 [4] [µM] | Structure (SMILES)
5 | 0.87 | 21 | 1.14 | 24 | NS(=O)(=O)c1ccc(-c2nnnn2-c2ccc(CO)cc2)cc1
6 | > 67 | > 200 | > 0.015 | 3 | CS(=O)(=O)c1ccc(Cc2nnnn2-c2ccc(CCO)cc2)cc1
7 | > 0.42 | 85 |  | > 200 | CS(=O)(=O)c1ccc(Cc2nnnn2-c2ccc(O)cc2)cc1
8 | > 5.2 | > 200 | > 0.19 | 38 | CS(=O)(=O)c1ccc(Cc2nnnn2-c2ccc(CO)cc2)cc1
9 | > 2 | > 200 |  | 99 | NS(=O)(=O)c1ccc(-c2nnnn2-c2ccc(CCO)cc2)cc1

Source: ChEMBL document CHEMBL4431383, “Structure-activity relationship of novel series of 1,5-disubstituted tetrazoles as cyclooxygenase-2 inhibitors: Design, synthesis, bioassay screening and molecular docking studies” (Bioorg Med Chem Lett, 2016)
